1 compound from US9458137B2, “Substituted indol-5-ol derivatives and their therapeutical applications” (NantBioScience, Inc., priority 2012, dated 2016) can be followed below.

One assay deals with NEK6(h) (Homo sapiens, UniProt Q9HC98). As to the kind of experiment: Kinase panel activity. The note with it: 0.1 μM, ATP Km. It is filed as biochemical. As to the method: (§1) The effect of NTW-3475 on kinase activity was tested for a wide range of kinases and is shown in Table 2: Summary Sheet, Activity % ATP Concentration: Km
NEK6(h), sequence (Q9HC98 whole entry): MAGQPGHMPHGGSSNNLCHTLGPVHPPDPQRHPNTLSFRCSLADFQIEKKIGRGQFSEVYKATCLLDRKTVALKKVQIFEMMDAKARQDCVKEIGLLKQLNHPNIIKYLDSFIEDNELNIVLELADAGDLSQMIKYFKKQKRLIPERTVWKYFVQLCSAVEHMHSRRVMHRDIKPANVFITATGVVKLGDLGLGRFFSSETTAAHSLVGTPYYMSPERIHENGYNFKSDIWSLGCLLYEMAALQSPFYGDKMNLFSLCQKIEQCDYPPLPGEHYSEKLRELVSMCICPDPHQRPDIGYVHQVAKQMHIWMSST
The next assay addresses T1, DRAK1(h) (Homo sapiens, UniProt Q9UEE5).
T1 construct: purchased Millipore (KinaseProfiler service)
The assay is described as follows: Kinase panel activity. It is filed as biochemical. The note with it: 0.1 μM, ATP Km. The procedure:
as §1

The next assay deals with IRAK1(h) (Homo sapiens, UniProt P51617). The assay is described as follows: Kinase panel activity. It is filed as biochemical. The note with it: 0.1 μM, ATP Km. As to the method:
as §1

For the next assay, the target named is IR(h), activated (Homo sapiens, UniProt P06213). The assay is described as follows: Kinase panel activity. It counts as biochemical. The note with it: 0.1 μM, ATP Km. The procedure:
as §1

In another assay the target is PKCα(h) (Homo sapiens, UniProt P17252). As to the kind of experiment: Kinase panel activity. It counts as biochemical. The conditions noted are these: 0.1 μM, ATP Km. The procedure: as §1
The target in a further assay is T2, Mnk2(h) (Homo sapiens, UniProt Q9HBH9).
T2 construct: purchased Millipore (KinaseProfiler service)
The assay is described as follows: Kinase panel activity. It counts as biochemical. The conditions noted are these: 0.1 μM, ATP Km. As to the method: as §1

A further assay has as its target PKCθ(h) (Homo sapiens, UniProt Q04759). As to the kind of experiment: Kinase panel activity. It counts as biochemical. The conditions noted are these: 0.1 μM, ATP Km. The procedure:
as §1

A further assay concerns the target DMPK(h) (Homo sapiens, UniProt Q09013). The assay is described as follows: Kinase panel activity. It is filed as biochemical. The note with it: 0.1 μM, ATP Km. As to the method:
as §1

The target of the next assay is CDK6/cyclinD3(h) (Homo sapiens, UniProt Q00534). As to the kind of experiment: Kinase panel activity. It counts as biochemical. The conditions noted are these: 0.1 μM, ATP Km. The procedure: as §1
For a further assay, the target named is p70S6K(h) (Homo sapiens, UniProt P23443). As to the kind of experiment: Kinase panel activity. It is filed as biochemical. The conditions noted are these: 0.1 μM, ATP Km. The procedure:
as §1

Another assay concerns the target T3, TSSK1(h) (Homo sapiens, UniProt Q9BXA7).
T3 construct: purchased Millipore (KinaseProfiler service)
As to the kind of experiment: Kinase panel activity. It counts as biochemical. The note with it: 0.1 μM, ATP Km. As to the method:
as §1

The target in a further assay is T4, MAPKAP-K3(h) (Homo sapiens, UniProt Q16644).
T4 construct: purchased Millipore (KinaseProfiler service)
As to the kind of experiment: Kinase panel activity. It is filed as biochemical. The conditions noted are these: 0.1 μM, ATP Km. As to the method:
as §1

Another assay has as its target JAK3(h) (Homo sapiens, UniProt P52333). As to the kind of experiment: Kinase panel activity. It counts as biochemical. The note with it: 0.1 μM, ATP Km. As to the method:
as §1

The target of a further assay is AMPKα2(h) (Homo sapiens, UniProt P54646). As to the kind of experiment: Kinase panel activity. It counts as biochemical. The conditions noted are these: 0.1 μM, ATP Km. As to the method: as §1
For a further assay, the target named is T5, DYRK2(h) (Homo sapiens, UniProt Q92630).
T5 construct: purchased Millipore (KinaseProfiler service)
T5 sequence (Q92630 whole entry): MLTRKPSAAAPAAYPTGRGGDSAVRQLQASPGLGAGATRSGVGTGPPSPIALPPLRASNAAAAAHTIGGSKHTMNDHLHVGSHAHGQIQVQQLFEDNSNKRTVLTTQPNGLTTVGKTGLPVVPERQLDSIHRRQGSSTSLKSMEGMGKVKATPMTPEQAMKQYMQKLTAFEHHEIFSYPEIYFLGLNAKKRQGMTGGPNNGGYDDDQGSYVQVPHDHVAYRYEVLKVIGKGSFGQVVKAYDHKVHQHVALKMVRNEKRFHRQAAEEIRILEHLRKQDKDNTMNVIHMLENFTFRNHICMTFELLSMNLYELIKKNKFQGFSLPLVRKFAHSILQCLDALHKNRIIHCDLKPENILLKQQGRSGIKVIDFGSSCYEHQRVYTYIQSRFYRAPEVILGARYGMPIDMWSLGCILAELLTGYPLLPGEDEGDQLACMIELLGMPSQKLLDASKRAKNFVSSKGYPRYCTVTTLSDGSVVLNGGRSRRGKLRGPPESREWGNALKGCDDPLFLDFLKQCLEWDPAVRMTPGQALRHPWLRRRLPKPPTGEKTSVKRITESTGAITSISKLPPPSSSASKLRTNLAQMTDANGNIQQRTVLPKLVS
The assay is described as follows: Kinase panel activity. It counts as biochemical. The note with it: 0.1 μM, ATP Km. As to the method:
as §1

For a further assay, the target named is ZIPK(h) (Homo sapiens, UniProt O43293). As to the kind of experiment: Kinase panel activity. It is filed as biochemical. The note with it: 0.1 μM, ATP Km. The procedure:
as §1

A further assay deals with T6, Ret(h) (Homo sapiens, UniProt P07949).
T6 construct: purchased Millipore (KinaseProfiler service)
T6 sequence (P07949 29-1114): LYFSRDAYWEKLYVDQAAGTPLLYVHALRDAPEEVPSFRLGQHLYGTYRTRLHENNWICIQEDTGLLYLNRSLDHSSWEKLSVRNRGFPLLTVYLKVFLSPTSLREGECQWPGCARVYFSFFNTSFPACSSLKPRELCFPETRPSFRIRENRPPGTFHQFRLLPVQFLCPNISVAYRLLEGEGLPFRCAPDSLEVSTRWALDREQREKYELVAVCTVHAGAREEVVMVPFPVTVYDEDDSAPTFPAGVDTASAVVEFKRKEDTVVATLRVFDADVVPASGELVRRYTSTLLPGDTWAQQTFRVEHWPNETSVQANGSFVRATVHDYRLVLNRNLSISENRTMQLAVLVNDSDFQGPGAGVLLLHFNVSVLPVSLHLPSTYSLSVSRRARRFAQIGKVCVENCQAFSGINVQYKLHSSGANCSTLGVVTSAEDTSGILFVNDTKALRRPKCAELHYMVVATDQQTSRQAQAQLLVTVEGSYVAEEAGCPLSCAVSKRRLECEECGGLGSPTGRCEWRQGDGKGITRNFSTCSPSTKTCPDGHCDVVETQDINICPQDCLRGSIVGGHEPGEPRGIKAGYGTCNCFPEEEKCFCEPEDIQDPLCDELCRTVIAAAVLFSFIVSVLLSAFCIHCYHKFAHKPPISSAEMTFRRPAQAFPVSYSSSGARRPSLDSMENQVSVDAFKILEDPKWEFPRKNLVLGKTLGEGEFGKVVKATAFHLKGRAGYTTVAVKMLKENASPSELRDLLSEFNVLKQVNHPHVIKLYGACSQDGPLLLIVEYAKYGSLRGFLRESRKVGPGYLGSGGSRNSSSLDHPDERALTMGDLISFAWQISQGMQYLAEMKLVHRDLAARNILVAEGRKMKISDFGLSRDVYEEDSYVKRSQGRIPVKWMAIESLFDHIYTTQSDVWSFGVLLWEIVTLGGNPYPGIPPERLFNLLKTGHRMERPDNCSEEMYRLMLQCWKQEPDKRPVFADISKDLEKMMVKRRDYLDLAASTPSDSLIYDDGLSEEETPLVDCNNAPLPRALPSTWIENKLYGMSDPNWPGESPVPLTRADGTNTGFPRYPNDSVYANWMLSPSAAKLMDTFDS
As to the kind of experiment: Kinase panel activity. It counts as biochemical. The note with it: 0.1 μM, ATP Km. As to the method:
as §1

A further assay addresses T7, Met(h) (Homo sapiens, UniProt P08581).
T7 construct: purchased Millipore (KinaseProfiler service)
The assay is described as follows: Kinase panel activity. The conditions noted are these: 0.1 μM, ATP Km. It counts as biochemical. The procedure:
as §1

The next assay deals with CaMKIIβ(h) (Homo sapiens, UniProt Q13554). The assay is described as follows: Kinase panel activity. The note with it: 0.1 μM, ATP Km. It counts as biochemical. The procedure:
as §1

The target in another assay is T8, EphA7(h) (Homo sapiens, UniProt Q15375).
T8 construct: purchased Millipore (KinaseProfiler service)
As to the kind of experiment: Kinase panel activity. It is filed as biochemical. The note with it: 0.1 μM, ATP Km. As to the method: as §1

Another assay has as its target HIPK3(h) (Homo sapiens, UniProt Q9H422). The assay is described as follows: Kinase panel activity. It is filed as biochemical. The note with it: 0.1 μM, ATP Km. As to the method:
as §1

For another assay, the target named is T9, EphA3(h) (Homo sapiens, UniProt P29320).
T9 construct: purchased Millipore (KinaseProfiler service)
As to the kind of experiment: Kinase panel activity. It counts as biochemical. The note with it: 0.1 μM, ATP Km. As to the method:
as §1

Another assay deals with PKCζ(h) (Homo sapiens, UniProt Q05513). The assay is described as follows: Kinase panel activity. The conditions noted are these: 0.1 μM, ATP Km. It counts as biochemical. As to the method:
as §1

Assay [1] deals with human tumor cell lines of the cancer screening panel. The assay is described as follows: in vitro antiproliferation, NCI 60 cancer cell line panel (SRB). It is filed as cell-based. The conditions noted are these: 48 h. As to the method: NTW-3475 was also tested for its antiproliferative potential using cell lines from the NCI 60 cancer cell line panel.
The human tumor cell lines of the cancer screening panel are grown in RPMI 1640 medium containing 5% fetal bovine serum and 2 mM L-glutamine. For a typical screening experiment, cells are inoculated into 96 well microtiter plates in 100 μL at plating densities ranging from 5,000 to 40,000 cells/well depending on the doubling time of individual cell lines. After cell inoculation, the microtiter plates are incubated at 37° C., 5% CO2, 95% air and 100% relative humidity for 24 h prior to addition of experimental drugs. […]
Following drug addition, the plates are incubated for an additional 48 h at 37° C., 5% CO2, 95% air, and 100% relative humidity. […] Bound stain is subsequently solubilized with 10 mM trizma base, and the absorbance is read on an automated plate reader at a wavelength of 515 nm. […] Using the seven absorbance measurements [time zero, (Tz), control growth, (C), and test growth in the presence of drug at the five concentration levels (Ti)], the percentage growth is calculated at each of the drug concentrations levels. Percentage growth inhibition is calculated as: [(Ti-Tz)/(C-Tz)]×100 for concentrations for which Ti>/=Tz [(Ti-Tz)/Tz]×100 for concentrations for which Ti<Tz.
Three dose response parameters are calculated for each experimental agent. […]

T1 sequence (Q9UEE5 whole entry): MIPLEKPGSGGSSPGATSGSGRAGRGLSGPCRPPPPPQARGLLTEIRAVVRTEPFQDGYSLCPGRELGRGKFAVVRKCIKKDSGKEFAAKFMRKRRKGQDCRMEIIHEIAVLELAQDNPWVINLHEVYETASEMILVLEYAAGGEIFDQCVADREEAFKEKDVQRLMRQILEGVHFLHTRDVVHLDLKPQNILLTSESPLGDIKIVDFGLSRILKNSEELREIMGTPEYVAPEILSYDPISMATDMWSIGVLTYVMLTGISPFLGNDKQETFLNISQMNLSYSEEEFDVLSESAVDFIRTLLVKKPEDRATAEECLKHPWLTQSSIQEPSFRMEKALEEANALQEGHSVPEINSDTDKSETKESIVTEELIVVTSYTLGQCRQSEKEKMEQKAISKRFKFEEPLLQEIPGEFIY
ZIPK(h), sequence (O43293 whole entry): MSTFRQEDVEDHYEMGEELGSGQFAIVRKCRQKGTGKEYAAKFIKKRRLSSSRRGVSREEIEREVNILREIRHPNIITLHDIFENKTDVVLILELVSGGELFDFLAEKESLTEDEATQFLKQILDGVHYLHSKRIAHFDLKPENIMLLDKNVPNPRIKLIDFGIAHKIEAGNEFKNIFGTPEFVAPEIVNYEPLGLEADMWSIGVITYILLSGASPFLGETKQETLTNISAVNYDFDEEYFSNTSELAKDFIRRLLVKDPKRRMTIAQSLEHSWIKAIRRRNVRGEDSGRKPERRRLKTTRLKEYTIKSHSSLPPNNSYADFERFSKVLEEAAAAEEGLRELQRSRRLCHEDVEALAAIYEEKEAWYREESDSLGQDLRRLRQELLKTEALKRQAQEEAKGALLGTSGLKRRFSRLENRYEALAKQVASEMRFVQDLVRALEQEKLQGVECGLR
IR(h), activated, sequence (P06213 28-1382): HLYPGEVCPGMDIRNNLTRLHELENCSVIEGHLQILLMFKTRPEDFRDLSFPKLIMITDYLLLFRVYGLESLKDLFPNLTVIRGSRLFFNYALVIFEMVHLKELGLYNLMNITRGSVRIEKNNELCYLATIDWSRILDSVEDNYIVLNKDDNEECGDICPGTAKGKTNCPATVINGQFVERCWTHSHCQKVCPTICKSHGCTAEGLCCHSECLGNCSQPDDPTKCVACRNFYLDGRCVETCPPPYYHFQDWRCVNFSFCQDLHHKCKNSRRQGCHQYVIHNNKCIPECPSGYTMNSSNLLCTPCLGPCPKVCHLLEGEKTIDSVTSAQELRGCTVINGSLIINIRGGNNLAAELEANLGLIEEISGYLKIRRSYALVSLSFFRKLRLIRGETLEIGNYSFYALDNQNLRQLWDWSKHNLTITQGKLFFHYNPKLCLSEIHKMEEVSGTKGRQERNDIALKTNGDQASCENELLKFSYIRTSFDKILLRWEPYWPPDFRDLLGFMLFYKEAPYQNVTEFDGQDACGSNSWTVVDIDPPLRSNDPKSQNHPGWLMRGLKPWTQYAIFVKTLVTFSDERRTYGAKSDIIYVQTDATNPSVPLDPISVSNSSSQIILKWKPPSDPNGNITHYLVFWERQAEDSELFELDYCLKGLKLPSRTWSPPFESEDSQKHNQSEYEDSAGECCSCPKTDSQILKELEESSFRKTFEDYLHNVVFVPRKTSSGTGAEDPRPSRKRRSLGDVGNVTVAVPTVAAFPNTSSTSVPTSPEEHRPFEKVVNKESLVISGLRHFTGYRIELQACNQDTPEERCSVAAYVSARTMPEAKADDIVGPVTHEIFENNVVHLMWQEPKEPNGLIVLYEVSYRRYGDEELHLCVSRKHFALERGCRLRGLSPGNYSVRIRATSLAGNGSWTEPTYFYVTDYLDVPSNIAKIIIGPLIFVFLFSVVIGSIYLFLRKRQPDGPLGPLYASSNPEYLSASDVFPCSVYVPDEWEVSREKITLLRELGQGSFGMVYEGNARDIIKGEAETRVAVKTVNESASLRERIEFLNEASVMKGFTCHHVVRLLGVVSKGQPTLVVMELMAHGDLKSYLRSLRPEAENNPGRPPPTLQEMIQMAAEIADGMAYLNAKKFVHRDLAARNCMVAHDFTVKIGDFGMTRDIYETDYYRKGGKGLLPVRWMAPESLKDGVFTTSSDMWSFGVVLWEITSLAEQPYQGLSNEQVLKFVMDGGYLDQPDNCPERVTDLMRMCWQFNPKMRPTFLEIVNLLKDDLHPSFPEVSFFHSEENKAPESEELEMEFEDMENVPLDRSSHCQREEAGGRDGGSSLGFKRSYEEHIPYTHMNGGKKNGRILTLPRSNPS

In the case of `Cc1cc2c(F)c(Oc3nc(Nc4cc(C5CC5)[nH]n4)cc(N4CCN(C)CC4)n3)cc(F)c2[nH]1` [NTW-3475], the Activity % was determined as 90% on NEK6(h); 51% on DRAK1(h); 96% on IRAK1(h); 13% at IR(h), activated; 95% on PKCα(h); 92% on Mnk2(h). The Activity % is 109% on PKCθ(h); 102% at DMPK(h); 65% at CDK6/cyclinD3(h); 84% at p70S6K(h); 86% on TSSK1(h); 103% at MAPKAP-K3(h). For the same compound, the Activity % at JAK3(h) was 3%; at AMPKα2(h) it was 5%; on DYRK2(h), 96%; on ZIPK(h), 104%; on Ret(h), −1%; at Met(h) it was 11%. Also, the Activity % on CaMKIIβ(h) turned out to be 99%; on EphA7(h), 54%; at HIPK3(h) it was 88%; on EphA3(h), 22%; on PKCζ(h), 109%. Further, the antiproliferative activity result in assay [1] is “strong antiproliferative activity in at least 13 of the 16 cell lines studied”.
